Measurements from ChEMBL document CHEMBL1147166, “Structure-activity relationships of methoctramine-related polyamines as muscarinic antagonist: effect of replacing the inner polymethylene chain with cyclic moieties” (Bioorg Med Chem, 2007).

Tests used:
[1] = biological target: T1, Muscarinic acetylcholine receptor M5 (Homo sapiens, UniProt P08912); assay: Displacement of [3H] N-methyl-scopolamine chloride from human muscarinic receptor M5 expressed in CHO cells; format: cell-based
T1 sequence (P08912 whole entry): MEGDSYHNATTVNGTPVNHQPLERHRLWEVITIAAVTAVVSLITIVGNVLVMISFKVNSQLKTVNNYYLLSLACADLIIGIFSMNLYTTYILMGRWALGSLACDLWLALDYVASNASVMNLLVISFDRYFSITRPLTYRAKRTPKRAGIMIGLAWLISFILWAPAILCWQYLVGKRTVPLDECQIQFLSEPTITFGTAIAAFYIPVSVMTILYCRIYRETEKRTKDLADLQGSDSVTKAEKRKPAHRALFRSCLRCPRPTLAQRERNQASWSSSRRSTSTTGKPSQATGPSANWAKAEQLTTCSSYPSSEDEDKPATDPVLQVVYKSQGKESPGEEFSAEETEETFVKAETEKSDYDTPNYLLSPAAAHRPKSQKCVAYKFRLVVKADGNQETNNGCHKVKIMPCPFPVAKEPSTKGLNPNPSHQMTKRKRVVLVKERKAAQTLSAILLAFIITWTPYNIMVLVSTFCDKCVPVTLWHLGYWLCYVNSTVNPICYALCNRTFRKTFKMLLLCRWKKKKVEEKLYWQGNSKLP

[2] = biological target: T2, Muscarinic acetylcholine receptor M4 (Homo sapiens, UniProt P08173); assay: Displacement of [3H] N-methyl-scopolamine chloride from human muscarinic receptor M4 expressed in CHO cells; format: cell-based
T2 sequence (P08173 whole entry): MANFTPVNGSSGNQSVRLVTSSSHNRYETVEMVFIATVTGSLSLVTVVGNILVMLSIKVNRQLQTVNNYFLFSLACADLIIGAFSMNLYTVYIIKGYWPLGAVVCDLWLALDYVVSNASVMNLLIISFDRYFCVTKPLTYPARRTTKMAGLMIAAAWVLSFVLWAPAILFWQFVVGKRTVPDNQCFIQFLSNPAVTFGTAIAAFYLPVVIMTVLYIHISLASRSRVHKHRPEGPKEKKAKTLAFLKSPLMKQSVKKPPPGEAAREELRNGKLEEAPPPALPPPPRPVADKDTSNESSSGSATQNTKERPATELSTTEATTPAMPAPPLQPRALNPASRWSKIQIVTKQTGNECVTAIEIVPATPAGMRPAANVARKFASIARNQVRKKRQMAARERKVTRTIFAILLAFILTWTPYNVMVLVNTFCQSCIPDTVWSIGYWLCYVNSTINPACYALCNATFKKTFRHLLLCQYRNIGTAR

[3] = tested on: Mus musculus; assay: Antinociceptive activity in mouse assessed as licking latency at 1.0 ug, icv after 30 mins by hot plate method; format: functional
[4] = biological target: Acetylcholinesterase (Homo sapiens, UniProt P22303); assay: Inhibition of human erythrocyte recombinant AchE after 20 mins
Sequence of Acetylcholinesterase (P22303 whole entry): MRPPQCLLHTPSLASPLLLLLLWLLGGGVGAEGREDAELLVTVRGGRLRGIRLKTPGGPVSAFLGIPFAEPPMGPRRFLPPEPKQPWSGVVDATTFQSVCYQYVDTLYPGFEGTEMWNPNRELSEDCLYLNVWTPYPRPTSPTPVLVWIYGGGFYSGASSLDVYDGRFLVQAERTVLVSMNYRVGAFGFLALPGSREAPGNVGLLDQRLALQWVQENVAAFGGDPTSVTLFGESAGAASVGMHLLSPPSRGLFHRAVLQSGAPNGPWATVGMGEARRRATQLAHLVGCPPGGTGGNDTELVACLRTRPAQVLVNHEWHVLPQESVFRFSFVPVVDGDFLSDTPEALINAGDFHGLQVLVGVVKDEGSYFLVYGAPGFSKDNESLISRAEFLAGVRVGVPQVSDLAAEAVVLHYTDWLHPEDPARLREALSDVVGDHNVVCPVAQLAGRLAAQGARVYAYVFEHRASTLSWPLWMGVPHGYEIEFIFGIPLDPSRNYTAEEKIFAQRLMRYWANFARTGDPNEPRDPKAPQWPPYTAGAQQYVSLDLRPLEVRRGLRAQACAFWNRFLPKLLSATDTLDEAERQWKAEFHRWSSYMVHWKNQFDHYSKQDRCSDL

[5] = biological target: Muscarinic acetylcholine receptor M3 (Cavia porcellus) (UniProt Q8VH26); assay: Antagonist potency at muscarinic receptor M3 in guinea pig ileum; format: functional, tissue-based
Sequence of Muscarinic acetylcholine receptor M3 (Cavia porcellus) (Q8VH26 1-587): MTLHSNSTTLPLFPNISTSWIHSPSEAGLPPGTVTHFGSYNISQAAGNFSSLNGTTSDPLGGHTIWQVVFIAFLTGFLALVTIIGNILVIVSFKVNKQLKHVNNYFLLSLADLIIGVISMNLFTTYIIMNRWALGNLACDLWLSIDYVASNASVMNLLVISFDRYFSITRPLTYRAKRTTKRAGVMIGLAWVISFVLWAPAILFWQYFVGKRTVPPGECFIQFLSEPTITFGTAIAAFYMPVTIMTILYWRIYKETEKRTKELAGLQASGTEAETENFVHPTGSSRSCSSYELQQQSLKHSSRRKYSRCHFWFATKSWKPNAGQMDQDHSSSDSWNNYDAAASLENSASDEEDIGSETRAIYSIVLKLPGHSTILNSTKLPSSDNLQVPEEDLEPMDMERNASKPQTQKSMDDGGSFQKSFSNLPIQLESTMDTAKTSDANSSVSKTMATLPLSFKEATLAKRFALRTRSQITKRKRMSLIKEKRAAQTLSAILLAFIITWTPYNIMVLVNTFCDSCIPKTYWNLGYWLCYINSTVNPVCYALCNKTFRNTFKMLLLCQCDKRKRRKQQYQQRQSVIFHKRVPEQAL

[6] = tested on: Mus musculus; assay: Antinociceptive activity in mouse assessed as licking latency at 0.01 ug, icv after 30 mins by hot plate method; format: functional
[7] = tested on: Mus musculus; assay: Antinociceptive activity in mouse assessed as licking latency at 0.3 ug, icv after 15 mins by hot plate method; format: functional
[8] = tested on: Mus musculus; assay: Antinociceptive activity in mouse assessed as licking latency at 10 ug, icv after 45 mins by hot plate method; format: functional
[9] = tested on: Mus musculus; assay: Antinociceptive activity in mouse assessed as licking latency at 0.3 ug, icv after 30 mins by hot plate method; format: functional
[10] = tested on: Mus musculus; assay: Antinociceptive activity in mouse assessed as licking latency at 10 ug, icv after 15 mins by hot plate method; format: functional
[11] = tested on: Mus musculus; assay: Antinociceptive activity in mouse assessed as licking latency at 0.1 ug, icv after 60 mins by hot plate method; format: functional
[12] = tested on: Mus musculus; assay: Antinociceptive activity in mouse assessed as licking latency at 0.1 ug, icv after 15 mins by hot plate method; format: functional
[13] = tested on: Mus musculus; assay: Antinociceptive activity in mouse assessed as licking latency at 0.1 ug, icv after 45 mins by hot plate method; format: functional
[14] = tested on: Mus musculus; assay: Antinociceptive activity in mouse assessed as licking latency at 0.03 ug, icv after 15 mins by hot plate method; format: functional
[15] = biological target: T3, Muscarinic acetylcholine receptor M1 (Homo sapiens, UniProt P11229); assay: Displacement of [3H] N-methyl-scopolamine chloride from human muscarinic receptor M1 expressed in CHO cells; format: cell-based
T3 sequence (P11229 whole entry): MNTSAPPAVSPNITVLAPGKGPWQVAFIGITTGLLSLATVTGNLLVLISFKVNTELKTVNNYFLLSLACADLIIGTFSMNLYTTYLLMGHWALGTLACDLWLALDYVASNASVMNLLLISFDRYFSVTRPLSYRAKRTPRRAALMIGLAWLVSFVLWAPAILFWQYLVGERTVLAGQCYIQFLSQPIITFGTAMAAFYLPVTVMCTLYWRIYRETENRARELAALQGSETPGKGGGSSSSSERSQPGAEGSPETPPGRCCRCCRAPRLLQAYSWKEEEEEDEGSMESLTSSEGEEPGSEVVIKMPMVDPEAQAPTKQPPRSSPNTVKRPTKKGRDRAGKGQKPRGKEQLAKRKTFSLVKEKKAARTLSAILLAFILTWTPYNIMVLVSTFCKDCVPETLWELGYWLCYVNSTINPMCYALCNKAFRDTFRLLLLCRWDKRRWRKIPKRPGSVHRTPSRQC

[16] = tested on: Mus musculus; assay: Antinociceptive activity in mouse assessed as licking latency at 10 ug, icv after 30 mins by hot plate method; format: functional
[17] = biological target: T4, Muscarinic acetylcholine receptor M4 (Homo sapiens) (UniProt P08173); assay: Antagonist potency at muscarinic receptor M4 in rabbit vas deferens; format: functional, tissue-based; conditions: Oryctolagus cuniculus, target entry is the homologue from another species
T4 sequence (whole entry): T2 sequence (P08173 whole entry)

[18] = tested on: Mus musculus; assay: Antinociceptive activity in mouse assessed as licking latency at 0.03 ug, icv after 60 mins by hot plate method; format: functional
[19] = biological target: T5, Muscarinic acetylcholine receptor M2 (Homo sapiens, UniProt P08172); assay: Displacement of [3H] N-methyl-scopolamine chloride from human muscarinic receptor M2 expressed in CHO cells; format: cell-based
T5 sequence (P08172 whole entry): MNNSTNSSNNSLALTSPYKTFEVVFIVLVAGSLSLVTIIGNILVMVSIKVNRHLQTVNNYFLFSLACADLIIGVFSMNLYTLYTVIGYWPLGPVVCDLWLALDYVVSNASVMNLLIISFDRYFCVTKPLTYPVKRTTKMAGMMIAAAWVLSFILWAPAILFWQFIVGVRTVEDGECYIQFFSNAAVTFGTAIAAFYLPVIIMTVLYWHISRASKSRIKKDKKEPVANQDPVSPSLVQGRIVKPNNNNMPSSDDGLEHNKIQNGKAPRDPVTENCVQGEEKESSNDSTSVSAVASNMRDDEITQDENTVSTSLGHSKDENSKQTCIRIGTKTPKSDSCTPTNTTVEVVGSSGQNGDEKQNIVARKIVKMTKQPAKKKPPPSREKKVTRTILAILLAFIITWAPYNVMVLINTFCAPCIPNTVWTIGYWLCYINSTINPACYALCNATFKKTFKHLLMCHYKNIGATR

[20] = biological target: T6, Muscarinic acetylcholine receptor M2 (Homo sapiens) (UniProt P08172); assay: Antagonist potency at muscarinic receptor M2 in guinea pig atrium; format: functional, tissue-based; conditions: Cavia porcellus; Cardiac atrium; target entry is the homologue from another species
T6 sequence (whole entry): T5 sequence (P08172 whole entry)

Compound COc1ccccc1CNCCCCCCN1CCC(CCC2CCN(CCCCCCNCc3ccccc3OC)CC2)CC1 has a Ki [1] of 170 nM, a Ki [2] of 40.7 nM and a Time [3] of 21.3 s. The IC50 [4] was 1290 nM, the pKb [5] was 6.58 and the Time [6] was 17.1 s. It also gave a Time [7] of 23.8 s, a Time [8] of 17.7 s and a Time [9] of 25 s. For the same compound, the Time [10] was 13.3 s, the Time [11] was 18.6 s and the Time [12] was 24.7 s. The Time [13] was 22.1 s, the Time [14] was 18.6 s and the Ki [15] was 20 nM. It also gave a Time [16] of 15.6 s, a pKb [17] of 5.56 and a Time [18] of 16.1 s. The Ki [19] was 6.03 nM and the pKb [20] was 7.98.
